Results on one molecule are retold here after patent US20250026770A1, “NOVEL BORONSOME FACILITATING DIAGNOSIS AND TREATMENT” (PEKING UNIVERSITY, priority 2021, published 2025).

For the assay, the system named is DNA repair system. The experiment in a line: γ-h2ax staining. The text has this: In terms of integration of radiotherapy and chemotherapy, the preferred drug for encapsulation was Doxorubicin. […] Subsequently, we considered that if we could start from the principles of BNCT and selected individual drugs that disrupt the DNA replication process, its efficacy could be further enhanced. Therefore, a poly(ADP-ribose)polymerase (PARP) inhibitor (olaparib) was selected.

As to `O=C(c1cc(Cc2n[nH]c(=O)c3ccccc23)ccc1F)N1CCN(C(=O)C2CC2)CC1` [olaparib], the “Interference on the DNA repair system” value is recorded as “verified its interference on the DNA repair system”.
